Results on 72 molecules are retold here after patent US7973069B2 (PTC Therapeutics, Inc., priority 2004, dated 2011).

Several values for one entry are separate records, joined by “and”; a condition that tells them apart may be missing. Equal values may be shown once. Bounds are passed on as bounds.

In the test the test system is HCV replicon. It is filed as cell-based.
For orientation: IC50 means the midpoint of a concentration-inhibition curve. The molecule `CCn1c(-c2cccc(N3CCNC3=O)c2)c(C#N)c2ccc(OCCCN3CCOCC3)cc21` [Compound 1068] displayed an IC50 of 0.5 to 2 µM. In the case of `CCn1c(-c2cccc(NC(=O)Oc3ccc(OC)cc3)c2)c(C#N)c2ccc(OCCCCl)cc21` [Compound 1028], the IC50 was under 0.5 µM.

In turn, `CCCS(=O)(=O)Nc1ccc(-c2c(C#N)c3ccc(OC(F)(F)F)cc3n2CC)cc1` [Compound 882] returned a half-maximal inhibitory concentration (IC50) of under 0.5 µM. `CCCn1c(-c2ccc(NS(=O)(=O)C(C)C)cc2)c(C#N)c2cc(OC)ccc21` [Compound 997]: the IC50 was in the range of 0.5 to 2 µM.

With `CCn1c(-c2ccc(N)cc2)c(C#N)c2ccc(OC(F)F)cc21` [Compound 870], the concentration for half-maximal inhibition (IC50) fell in the range of 0.5 to 2 µM. In turn, `CCCCNC(=O)Nc1ccc(-c2c(C#N)c3ccc(OC(F)(F)F)cc3n2CC)cc1` [Compound 894] showed an IC50 of 0.5 to 2 µM.

`CCn1c(-c2ccc(NC(=O)N3CCOCC3)cc2)c(C#N)c2ccc(OC)cc21` [Compound 1087] returned an IC50 of 0.5 to 2 µM. Turning to `CCNC(=O)Nc1cccc(-c2c(C#N)c3ccc(OCCCN4CCOCC4)cc3n2CC)c1` [Compound 1043], the IC50 lay in the range of 0.5 to 2 µM.

`CCn1c(-c2ccc(NC(=O)OC)c(C)c2)c(C#N)c2ccc(OC)cc21` [Compound 963]: the IC50 was in the range of 0.5 to 2 µM. For the molecule `N#Cc1c(-c2ccc(NC(=O)OC3CCCC3)cc2)n(C2CCC2)c2cc(OCc3cccnc3)ccc12` [Compound 1219], the IC50 is under 0.5 µM. The same measure for `CC(C)OC(=O)Nc1ccc(-c2c(C#N)c3ccc(OCCCN4CCN(C)CC4)cc3n2C2CCC2)cc1` [Compound 1261]: under 0.5 µM; for `C=CCOC(=O)Nc1ccc(-c2c(C#N)c3cc(OC)c(OC)cc3n2CC)cc1` [Compound 1111]: 0.5 to 2 µM. As for `CCCCn1c(-c2cccc(NC(=O)OCC)c2)c(C#N)c2ccc(OCC)cc21` [Compound 1020], the figure is < 0.5 µM and 0.5 to 2 µM; as for `CCCOC(=O)Nc1ccc(-c2c(C#N)c3ccc(OCC)cc3n2C2CCC2)cc1` [Compound 972], under 0.5 µM.

`CCN(CC)CCCOc1ccc2c(C#N)c(-c3ccc(NC(=O)OC(C)C)cc3)n(C3CCC3)c2c1` [Compound 1260]: the half-maximal inhibitory concentration (IC50) was under 0.5 µM. The same measure for `CCCCNC(=O)Nc1ccc(-c2c(C#N)c3cc(OC)ccc3n2CCC)cc1` [Compound 1008]: 0.5 to 2 µM; for `CCOP(=O)(Nc1ccc(-c2c(C#N)c3ccc(OC)cc3n2CC)cc1)OCC` [Compound 943]: 0.5 to 2 µM; for `CCn1c(-c2ccc(NC(=O)OCCCl)cc2)c(C#N)c2ccc(OCCCN3CCOCC3)cc21` [Compound 1114]: under 0.5 µM.

Molecule `CCOc1ccc2c(c1)c(C#N)c(-c1ccc(NC(=O)OC(C)C3CC3)cc1)n2C1CCC1` (stereo not drawn) [Compound 1296] returned an IC50 of 0.5 to 2 µM. Regarding `CCOC(=O)Nc1ccc(-c2c(C#N)c3ccc(OC(F)(F)F)cc3n2CC)cc1` [Compound 887], the IC50 lay within 0.5 to 2 µM.

On to `CCn1c(-c2ccc(N(C)S(C)(=O)=O)cc2)c(C#N)c2ccc(C(F)(F)F)cc21` [Compound 1002], for which the half-maximal inhibitory concentration (IC50) fell in the range of 0.5 to 2 µM. The same measure for `COc1ccc2c(C#N)c(-c3ccc(N4CCCS4(=O)=O)cc3)n(C3CCC3)c2c1` [Compound 1104]: 0.5 to 2 µM. As for `CCNC(=O)Nc1ccc(-c2c(C#N)c3ccc(OCC)cc3n2C2CCCC2)cc1` [Compound 1143], the figure is under 0.5 µM. As for `CCOc1ccc2c(C#N)c(-c3ccc(NC(=O)C4CC4)cc3)n(CC)c2c1` [Compound 897], the figure is 0.5 to 2 µM; as for `CCCn1c(-c2ccc(NC(=O)NCC)cc2)c(C#N)c2ccc(OCC)cc21` [Compound 1094], 0.5 to 2 µM; as for `CC(C)OC(=O)Nc1ccc(-c2c(C#N)c3ccc(OCCN4CCSCC4)cc3n2C2CCC2)cc1` [Compound 1273], 0.5 to 2 µM. `COc1ccc2c(c1)c(C#N)c(-c1ccc(NC(=O)NC(C)C)cc1)n2C1CCC1` [Compound 1163] had a concentration for half-maximal inhibition (IC50) of 0.5 to 2 µM. On to `CCN1CCN(c2ccc(-c3c(C#N)c4ccc(OC)cc4n3CC)cc2)S1(=O)=O` [Compound 1110], for which the IC50 lay within 0.5 to 2 µM. `C[C@@H](OC(=O)Nc1ccc(-c2c(C#N)c3ccc(Oc4cnccn4)cc3n2C2CC2)cc1)C1CC1` [Compound 2322] yielded a 50% inhibitory concentration (IC50) of under 0.5 µM. The molecule `CCCn1c(-c2ccc(NS(=O)(=O)C3CC3)cc2)c(C#N)c2cc(OC)ccc21` [Compound 998] registered an IC50 of 0.5 to 2 µM. As for `CCOC(=O)Nc1ccc(-c2c(C#N)c3ccc(OC)cc3n2CC)cc1F` [Compound 876], the figure is 0.5 to 2 µM.

Take `CCOC(=O)Nc1ccc(-c2c(C#N)c3ccc(OCC)cc3n2CC2CC2)cc1` [Compound 1148]: the IC50 is under 0.5 µM. The same measure for `CCCCOC(=O)Nc1ccc(-c2c(C#N)c3cc(OCC)ccc3n2C2CCC2)cc1` [Compound 1197]: 0.5 to 2 µM and < 0.5 µM; for `CCCOC(=O)Nc1ccc(-c2c(C#N)c3ccc(OCCCCl)cc3n2CC)cc1` [Compound 1030]: under 0.5 µM.

In turn, `CCNC(=O)Nc1ccc(-c2c(C#N)c3ccc(OC)cc3n2CC)cc1F` [Compound 909] displayed an IC50 of 0.5 to 2 µM.

For the molecule `C=CCNC(=O)Nc1ccc(-c2c(C#N)c3ccc(OCCF)cc3n2CC)cc1` [Compound 958], the IC50 was 0.5 to 2 µM and < 0.5 µM.

`CCCCS(=O)(=O)Nc1ccc(-c2c(C#N)c3ccc(OC(F)(F)F)cc3n2CC)cc1` [Compound 885]: the IC50 is under 0.5 µM. The same measure for `CCn1c(-c2ccc(NC(=O)OC(C)C)c(F)c2)c(C#N)c2ccc(OC)cc21` [Compound 878]: 0.5 to 2 µM. The same measure for `N#Cc1c(-c2ccc(NC(=O)NC3CCC3)cc2)n(C2CCC2)c2cc(OCCCCN3CCCC3)ccc12` [Compound 1259]: under 0.5 µM; for `CC(C)OC(=O)Nc1ccc(-c2c(C#N)c3ccc(OCc4ccccn4)cc3n2C2CCC2)cc1` [Compound 1220]: under 0.5 µM; for `COC(=O)c1ccc2c(C#N)c(-c3ccc(NC(=O)NC(C)C)cc3)n(C3CCC3)c2c1` [Compound 1301]: under 0.5 µM. The same measure for `CCOc1ccc2c(C#N)c(-c3ccc(NS(=O)(=O)C4CC4)cc3)n(C3CCC3)c2c1` [Compound 934]: under 0.5 µM; for `N#Cc1c(-c2ccc(NC(=O)OC3CCCC3)cc2)n(C2CCC2)c2cc(OC(F)F)ccc12` [Compound 1186]: 0.5 to 2 µM; for `CCCCn1c(-c2cccc(NC(=O)OCCC)c2)c(C#N)c2ccc(OCC)cc21` [Compound 1021]: under 0.5 µM. The molecule `CCCS(=O)(=O)Nc1ccc(-c2c(C#N)c3ccc(OC)cc3n2C2CC2)cc1` [Compound 1235] gave an IC50 of 0.5 to 2 µM.

Consider `CCOc1ccc2c(C#N)c(-c3ccc(NC(=O)NC(C)C)cc3)n(CC3CCC3)c2c1` [Compound 1171], for which the half-inhibitory concentration (IC50) is under 0.5 µM. The same measure for `CCCS(=O)(=O)Nc1ccc(-c2c(C#N)c3ccc(OCC)cc3n2C2CCC2)cc1` [Compound 933]: 0.5 to 2 µM; for `CCn1c(-c2ccc(NC(=O)NC)cc2)c(C#N)c2ccc(OCCCN3CCOCC3)cc21` [Compound 1118]: 0.5 to 2 µM. As for `CCCOc1ccc2c(C#N)c(-c3ccc(NC(=O)NC(C)CC)cc3)n(C(C)C)c2c1` (stereo not drawn) [Compound 1324], the figure is under 0.5 µM; as for `CCn1c(-c2ccc(N(C)S(=O)(=O)CC)cc2)c(C#N)c2ccc(C(F)(F)F)cc21` [Compound 1005], 0.5 to 2 µM; as for `CCOc1ccc2c(C#N)c(-c3ccc(NC(=O)OC(C)c4ccccc4)cc3)n(C3CCC3)c2c1` (stereo not drawn) [Compound 1289], under 0.5 µM. As for `COc1ccc2c(C#N)c(-c3ccc(NC(=O)NC(C)C)cc3)n(CC3CC3)c2c1` [Compound 987], the figure is 0.5 to 2 µM; as for `CCn1c(-c2ccc(NC(=O)NC(C)C)cc2)c(C#N)c2cc3c(cc21)OCO3` [Compound 1039], 0.5 to 2 µM. Consider `CCCCNC(=O)Nc1ccc(-c2c(C#N)c3ccc(OCC)cc3n2CC)cc1` [Compound 951], for which the IC50 was 0.5 to 2 µM. As for `CCn1c(-c2ccc(NC(=O)OC(C)C)cc2)c(C#N)c2ccc(OCCF)cc21` [Compound 946], the figure is under 0.5 µM. As for `CCCOC(=O)Nc1ccc(-c2c(C#N)c3ccc(OC)cc3n2COC)cc1` [Compound 993], the figure is 0.5 to 2 µM. The same measure for `N#Cc1c(-c2ccc(NS(=O)(=O)C3CC3)cc2)n(C2CCCC2)c2cc(OC(F)F)ccc12` [Compound 1189]: under 0.5 µM; for `CCOc1ccc2c(C#N)c(-c3ccc(NC(=O)OC(C)C)cc3)n(CC3CC3)c2c1` [Compound 1150]: under 0.5 µM; for `CCCn1c(-c2ccc(NC(=O)NC(C)CC)cc2)c(C#N)c2ccc(OC)cc21` (stereo not drawn) [Compound 1119]: 0.5 to 2 µM. In the case of `CC(C)S(=O)(=O)Nc1ccc(-c2c(C#N)c3ccc(OC(F)F)cc3n2CC2CC2)cc1` [Compound 941], the IC50 is under 0.5 µM. As for `CCCOC(=O)Nc1ccc(-c2c(C#N)c3ccc(OCCC)cc3n2C(C)C)cc1` [Compound 1203], the figure is under 0.5 µM; as for `COc1ccc2c(C#N)c(-c3ccc(NC(=O)NC4CCCC4)cc3)n(C3CCC3)c2c1` [Compound 1106], under 0.5 µM.

For `CCn1c(-c2ccc(NC(=O)C3CC3)cc2)c(C#N)c2ccc(OCCN3CCSCC3)cc21` [Compound 1090], the half-inhibitory concentration (IC50) was in the range of 0.5 to 2 µM.

Regarding `CC1CCN(CCOc2ccc3c(C#N)c(-c4ccc(NC(=O)OC(C)C)cc4)n(C4CCC4)c3c2)CC1` [Compound 1272], the IC50 is under 0.5 µM. The same measure for `CCOc1ccc2c(c1)c(C#N)c(-c1ccc(NC(=O)OCC(C)(C)C)cc1)n2C1CCC1` [Compound 1200]: under 0.5 µM. As for `CCn1c(-c2ccc(NS(=O)(=O)CC)cc2)c(C#N)c2ccc(OCCCN3CCOCC3)cc21` [Compound 1115], the figure is 0.5 to 2 µM. The same measure for `CCOCCOC(=O)Nc1ccc(-c2c(C#N)c3ccc(OCC)cc3n2C2CCC2)cc1` [Compound 1250]: under 0.5 µM; for `CCOc1ccc2c(C#N)c(-c3ccc(NC(=O)CC)cc3)n(CC)c2c1` [Compound 896]: 0.5 to 2 µM; for `CCC(C)NC(=O)Nc1ccc(-c2c(C#N)c3ccc(OC(F)F)cc3n2CC2CC2)cc1` (stereo not drawn) [Compound 1266]: 0.5 to 2 µM. With `CC(C)OC(=O)Nc1ccc(-c2c(C#N)c3ccc(OCCn4ccnc4)cc3n2C2CCC2)cc1` [Compound 1275], the IC50 was under 0.5 µM. The molecule `N#Cc1c(-c2ccc(NC(=O)NC3CCCC3)cc2)n(C2CCC2)c2cc(OC(F)F)ccc12` [Compound 1190] returned a concentration for half-maximal inhibition (IC50) of 0.5 to 2 µM. As for `CCCNC(=O)Nc1ccc(-c2c(C#N)c3cc(OC)ccc3n2C2CCC2)cc1` [Compound 1162], the figure is 0.5 to 2 µM.
